Here are results for 2 compounds from patent publication US20240182466A1, “A Crystal Form of a Fluorine-substituted Pyridopyrazole Compound and a Preparation Method Thereof” (JUMBO DRUG BANK CO., LTD, priority 2021, published 2024).

The target of one data set is BTK (Homo sapiens (Human), UniProt Q06187). Briefly: BTK kinase test (33P-ATP filter binding). Type of data set: biochemical. The conditions noted are these: 120 min at room temperature. The method, then: (§1) Experimental example 1: EGFR, ITK, TEC, and BTK kinase'test.
(§2) Buffer condition: 20 mM HEPES(pH 7.5), 10 mM MgCl2, 1 mM EGTA, 0.02% Brij35, 0.02 mg/mL BSA, 0.1 mm Na3VO4, 2 mm; DTT, 1% DMSO.
(§3) 2.1. An indicator substrate was prepared in a reaction buffer prepared newly.
(§4) 2.2. A cofactor required was transferred to the substrate solution above.
(§5) 2.3. A kinase indicated was injected into the substrate solution and mixed gently.
(§6) 2.4. An acoustic technology was used to convey a compound in DMSO to a kinase reaction mixture (Echo550).
(§7) 2.5. ^33P-ATP (specific activity 0.01 μci/μL, finally) was fed into the reaction mixture to initiate a reaction. (ATP final concentrations were 2 μM, 5 μM, and 5 μM respectively).
(§8) 2.6. The kinase reaction was incubated at room temperature for 120 min.
(§9) 2.7. The reaction was recorded on P81 ion exchange paper (Whatman #3698-915).
(§10) 2.8. 0.75% phosphoric acid was widely used to clean a filter.
(§11) 2.9. The remaining radioactive phosphorylation substrate on filter paper was measured.
(§12) 3. Data analysis: the kinase activity data was expressed as a percentage of the remaining kinase activity in the test sample compared to the carrier (dimethyl sulfoxide) reaction. The IC50 value and curve fitting were obtained by using Prism4 software (GraphPad).

The target of another data set is TEC (Homo sapiens (Human), UniProt P42680). Briefly: TEC kinase test (33P-ATP filter binding). Type of data set: biochemical. Here is the method:
as §1, §2, §3, §4, §5, §6, §7, §8, §9, §10, §11, §12

A further data set has as its target ITK (Homo sapiens (Human), UniProt Q08881). Briefly: ITK kinase test (33P-ATP filter binding). Type of data set: biochemical. The method, then: as §1, §2, §3, §4, §5, §6, §7, §8, §9, §10, §11, §12
The next data set has as its target EGFR (Homo sapiens (Human), UniProt P00533). In words: EGFR kinase test (33P-ATP filter binding). The format is biochemical. The method, then: as §1, §2, §3, §4, §5, §6, §7, §8, §9, §10, §11, §12
The nature of data set [1]: Solid stability test of crystal form (XRPD). Type of data set: physicochemical. The conditions noted are these: influencing factors and accelerated conditions. Here is the method: According to the “Guiding Principles for Stability Test of Raw Materials and Preparations” (General Rule 9001 of Part Four of the Chinese Pharmacopoeia 2015 Edition), the stability of the crystal form A of the compound in Formula (I) was investigated under influencing factors ((high temperature (60° C., open), high humidity (room temperature/relative humidity 92.5%, open), strong light (visible light intensity of 5000 lux and ultraviolet intensity of […], open), and accelerated conditions (40° C./75% RH, open) and (60° C./75% RH, open)).
About 20 mg of the crystal form A of the compound in Formula (I) was weighed respectively, and it was placed at the bottom of a glass sample bottle, and spread into a thin layer. Its sample was completely exposed for sampling. The samples placed under different conditions were sampled for testing (XRPD) on day 5, day 10, 1 month, 2 months, and 3 months.

The nature of data set [2]: Hygroscopicity by dynamic vapor sorption (DVS). Type of data set: physicochemical. The conditions noted are these: 80% RH/25° C. The method, then: Instrument model: SMS DVS Intrinsic Plus dynamic steam adsorption instrument.
Test condition: a sample (10-20 mg) is taken and placed in a DVS sample tray for testing.
Detailed DVS parameters are as follows:
Balance: dm/dt=0.002%/min (minimum: 10 min, and maximum: 180 min).
Drying: it is dried at 0% relative humidity (RH) until dm/dt≤0.002%/min or maximum 180 min.
RH (%) test step range: 0%-95%-0%.
SMS DVS Intrinsic Plus dynamic steam adsorption instrument.
A sample (10-20 mg) was taken and placed in a DVS sample tray for testing.

Where [3] appears, read: 33P-ATP, 120 min at room temperature.

Chain of EGFR (P00533 25-1210): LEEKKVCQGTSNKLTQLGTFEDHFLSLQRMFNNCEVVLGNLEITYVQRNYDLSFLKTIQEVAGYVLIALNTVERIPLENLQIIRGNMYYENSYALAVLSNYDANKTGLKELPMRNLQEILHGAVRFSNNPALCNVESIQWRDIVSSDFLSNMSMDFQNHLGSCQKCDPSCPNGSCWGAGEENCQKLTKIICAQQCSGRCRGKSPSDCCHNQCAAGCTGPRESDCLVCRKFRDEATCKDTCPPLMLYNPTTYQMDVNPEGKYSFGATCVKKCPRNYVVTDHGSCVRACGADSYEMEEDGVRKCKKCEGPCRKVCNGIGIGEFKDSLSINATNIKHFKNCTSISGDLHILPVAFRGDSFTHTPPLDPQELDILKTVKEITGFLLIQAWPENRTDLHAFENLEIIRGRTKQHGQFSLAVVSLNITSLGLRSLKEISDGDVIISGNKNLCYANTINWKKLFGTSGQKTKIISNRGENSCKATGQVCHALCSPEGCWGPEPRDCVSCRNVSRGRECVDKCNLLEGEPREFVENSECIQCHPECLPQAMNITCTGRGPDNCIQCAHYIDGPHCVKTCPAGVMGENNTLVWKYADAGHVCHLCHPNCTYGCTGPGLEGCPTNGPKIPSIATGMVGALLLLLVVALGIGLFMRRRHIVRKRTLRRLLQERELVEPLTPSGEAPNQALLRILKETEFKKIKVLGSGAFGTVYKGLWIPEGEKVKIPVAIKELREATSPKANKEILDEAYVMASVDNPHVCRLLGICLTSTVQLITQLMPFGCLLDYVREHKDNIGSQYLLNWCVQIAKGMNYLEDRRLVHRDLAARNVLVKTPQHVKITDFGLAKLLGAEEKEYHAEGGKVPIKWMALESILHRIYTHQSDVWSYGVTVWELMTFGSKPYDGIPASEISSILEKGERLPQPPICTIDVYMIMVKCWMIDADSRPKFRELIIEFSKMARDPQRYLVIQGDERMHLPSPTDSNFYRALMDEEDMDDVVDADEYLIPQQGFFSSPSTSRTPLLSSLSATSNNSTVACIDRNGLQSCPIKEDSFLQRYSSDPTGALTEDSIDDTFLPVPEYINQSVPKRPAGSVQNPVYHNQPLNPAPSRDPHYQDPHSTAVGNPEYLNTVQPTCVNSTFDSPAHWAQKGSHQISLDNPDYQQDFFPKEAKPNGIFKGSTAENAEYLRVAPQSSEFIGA
Chain of TEC (P42680 whole entry): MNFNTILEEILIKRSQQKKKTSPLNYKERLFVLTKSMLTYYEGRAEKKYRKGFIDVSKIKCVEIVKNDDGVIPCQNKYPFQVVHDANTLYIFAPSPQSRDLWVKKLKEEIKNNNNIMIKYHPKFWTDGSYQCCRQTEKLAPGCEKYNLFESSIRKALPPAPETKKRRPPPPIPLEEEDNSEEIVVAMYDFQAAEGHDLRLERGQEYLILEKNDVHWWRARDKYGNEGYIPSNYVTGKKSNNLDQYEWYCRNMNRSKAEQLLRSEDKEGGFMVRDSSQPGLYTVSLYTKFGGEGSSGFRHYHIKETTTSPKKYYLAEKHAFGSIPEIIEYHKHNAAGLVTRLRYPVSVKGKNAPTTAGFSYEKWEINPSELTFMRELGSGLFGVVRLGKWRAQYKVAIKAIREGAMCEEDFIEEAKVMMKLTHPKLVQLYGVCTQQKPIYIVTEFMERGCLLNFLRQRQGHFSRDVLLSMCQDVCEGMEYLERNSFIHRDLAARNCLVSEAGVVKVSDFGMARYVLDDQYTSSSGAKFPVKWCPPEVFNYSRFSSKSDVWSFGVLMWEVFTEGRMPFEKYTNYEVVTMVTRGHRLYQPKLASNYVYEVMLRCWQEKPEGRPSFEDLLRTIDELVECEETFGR
Chain of ITK (Q08881 whole entry): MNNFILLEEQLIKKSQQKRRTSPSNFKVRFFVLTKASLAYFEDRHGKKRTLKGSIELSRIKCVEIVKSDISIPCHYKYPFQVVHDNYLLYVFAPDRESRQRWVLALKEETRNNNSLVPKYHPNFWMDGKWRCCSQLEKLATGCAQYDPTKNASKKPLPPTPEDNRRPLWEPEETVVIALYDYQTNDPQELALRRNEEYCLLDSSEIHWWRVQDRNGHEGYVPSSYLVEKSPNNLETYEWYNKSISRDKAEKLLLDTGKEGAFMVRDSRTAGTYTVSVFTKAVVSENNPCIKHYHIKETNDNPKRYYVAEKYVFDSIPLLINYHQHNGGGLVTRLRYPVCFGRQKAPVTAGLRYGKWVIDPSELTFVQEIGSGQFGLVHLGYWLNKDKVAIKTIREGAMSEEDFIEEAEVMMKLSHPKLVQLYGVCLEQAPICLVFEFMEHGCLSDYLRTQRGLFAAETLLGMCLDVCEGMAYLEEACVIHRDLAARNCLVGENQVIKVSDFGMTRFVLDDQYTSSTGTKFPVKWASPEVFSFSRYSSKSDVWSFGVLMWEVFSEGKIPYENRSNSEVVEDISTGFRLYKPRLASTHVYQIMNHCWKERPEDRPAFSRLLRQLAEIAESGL
Chain of BTK (Q06187 whole entry): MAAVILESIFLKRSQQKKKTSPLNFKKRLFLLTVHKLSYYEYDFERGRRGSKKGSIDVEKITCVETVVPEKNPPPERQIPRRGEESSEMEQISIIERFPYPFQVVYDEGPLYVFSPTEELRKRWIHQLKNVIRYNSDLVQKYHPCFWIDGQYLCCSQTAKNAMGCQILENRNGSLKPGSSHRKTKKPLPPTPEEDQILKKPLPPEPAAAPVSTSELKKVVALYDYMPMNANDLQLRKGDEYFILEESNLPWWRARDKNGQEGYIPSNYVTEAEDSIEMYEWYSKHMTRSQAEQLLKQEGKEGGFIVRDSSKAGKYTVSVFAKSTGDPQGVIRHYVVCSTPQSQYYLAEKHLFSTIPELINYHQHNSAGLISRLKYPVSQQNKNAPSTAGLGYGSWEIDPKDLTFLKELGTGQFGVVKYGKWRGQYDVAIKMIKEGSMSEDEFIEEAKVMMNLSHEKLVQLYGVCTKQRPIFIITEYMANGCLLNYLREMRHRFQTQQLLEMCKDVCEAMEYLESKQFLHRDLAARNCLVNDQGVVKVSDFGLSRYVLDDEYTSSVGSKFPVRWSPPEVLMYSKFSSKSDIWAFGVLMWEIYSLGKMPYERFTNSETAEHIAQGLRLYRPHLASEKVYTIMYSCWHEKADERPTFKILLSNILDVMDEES

Take `C=CC(=O)N1CCC[C@H](c2nn(-c3ccc(Oc4cccc(F)c4F)cc3)c3cncc(F)c23)C1` (single isomer, unassigned) [Compound 1B]: the IC50 at BTK turned out to be 2.16 nM; on TEC (setting [3]), 74.8 nM; at ITK (setting [3]) it was 5.43 µM; at EGFR (setting [3]) it was 829 nM. On TEC (IC50 TEC / IC50 BTK), the “EGFR, ITK, TEC, and BTK activity ratio: TEC to BTK” value came out at 34 times. At ITK (IC50 ITK / IC50 BTK), the “EGFR, ITK, TEC, and BTK activity ratio: ITK to BTK” value is recorded as 2513 times,. On EGFR (IC50 EGFR / IC50 BTK), the “EGFR, ITK, TEC, and BTK activity ratio: EGFR to BTK” value is 383 times,.
Turning to `C=CC(=O)N1CCC[C@@H](c2nn(-c3ccc(Oc4cccc(F)c4F)cc3)c3cncc(F)c23)C1`, the “Solid stability, conclusion in words” value in data set [1] is listed as “good stability”. Moreover, in data set [2], the Hygroscopic classification entry is “slight hygroscopicity” and the “ΔW, hygroscopic weight increase” value was 0.23%.

As usually defined, the IC50 is the midpoint of a concentration-inhibition curve. Higher therefore signals a need for much substance.
